According to patent US12404268B2, “2-heteroaryl aminoquinazolinone derivative” (Sumitomo Pharma Co., Ltd., priority 2020, dated 2025):
pIC50: −log10 of the molar value.

What follows are compounds tested on male Slc:ddY mice (pentetrazol-induced clonic seizure) (assay: Model subcutaneously injected with pentetrazol (minimum seizure model, scPTZ)). Details: 85 mg/kg pentetrazol s.c. 1 hour after oral dosing, observed 30 minutes.
Format: in vivo, mouse
Procedure: Evaluation of Model Subcutaneously Injected with Pentetrazol (Minimum Seizure Model, scPTZ)
This test evaluates the antiseizure effect of a medicament. The animal model used in this test is a phenotype of generalized absence seizure or myoclonic seizure. The test compound was orally administered to male Slc:ddY mice (group of five, body weight: 20 to 30 g), and 85 mg of pentetrazol/kg was subcutaneously administered 1 hour later. The presence/absence of expression of clonic seizure during 30 minutes was then observed. The dose at which […] (ED50) was calculated. 0.5% methylcellulose solution was administered for the control.

Structure (SMILES) | ED50 (clonic seizure)
N#Cc1ccc2nc(Nc3cccnc3)n(-c3ccccc3)c(=O)c2c1 [Example 3, 4-oxo-3-phenyl-2-(pyridin-3-ylamino)-3,4-dihydroquinazoline-6-carbonitrile] | 0.74 mg/kg, p.o.
O=c1c2ccccc2nc(Nc2cccnc2)n1-c1ccccc1 [Example 14, 3-phenyl-2-(pyridin-3-ylamino)quinazolin-4(3H)-one] | 4.17 mg/kg, p.o.

Each compound was assayed on SCN1A loss-of-function genetic mutation mice (epileptic spike) (assay: Evaluation of epileptic spike using SCN1A-mutated animal). Details: F1 SCN1A-mutated mice; spike frequency over 3 hours before and after administration.
Format: in vivo, mouse
Procedure: Evaluation of Epileptic Spike Using SCN1A-Mutated Animal
This test evaluates the inhibitory effect of a medicament on epileptic spike expressed with an SCN1A loss-of-function genetic mutation.
Febrile seizure was induced in the SCN1A-mutated mice (6 to 10 week old) described above from increasing the body temperature by placing and continuously incubating the mice in a plastic chamber whose internal temperature was increased by incubation using a warm bath of about 43° C. After two weeks from inducing febrile seizure, a head mount (cat #8201-SS, Pinnacle Technology) was mounted on the head of the mice. Two weeks after mounting the head mount, the F1 SCN1A loss-of-function genetic mutation mice (25 to 32 g) were connected to a seizure EEG recording system (Pinnacle Technology), and the test compound was administered. The epileptic spike frequency over 3 hours before and after administration of the compound was measured, and the dose at which epileptic spike frequency is suppressed to 50% after the administration (ED50) was calculated.

Structure (SMILES) | ED50 (dose at which epileptic spike frequency is suppressed to 50%)
N#Cc1ccc2nc(Nc3cccnc3)n(-c3ccccc3)c(=O)c2c1 [Example 3, 4-oxo-3-phenyl-2-(pyridin-3-ylamino)-3,4-dihydroquinazoline-6-carbonitrile] | 0.66 mg/kg, p.o.
O=c1c2ccccc2nc(Nc2cccnc2)n1-c1ccccc1 [Example 14, 3-phenyl-2-(pyridin-3-ylamino)quinazolin-4(3H)-one] | 5.83 mg/kg, p.o.

These compounds were tested on neurons induced to differentiate from SCN1A gene deficient human iPS cells (assay: Test for measuring hyperexcitation suppression activity (spontaneous calcium oscillation frequency)). Details: Homo sapiens, Neuron; @1 μM; read-out: inhibition rate.
Format: cell-based
Summary of the method: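 SCN1A-deficient iPS-derived neurons used from day 60 of differentiation, loaded 30 min with Calcium 6 probe. Compounds at final 0.1–100 μM; spontaneous calcium oscillation frequency recorded on FDSS7000EX, with the last 2 of 8 min post-addition expressed relative to the 2 min baseline.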

Structure (SMILES) | inhibition at 1 µM
N#Cc1ccc2nc(Nc3cccnc3)n(-c3ccccc3)c(=O)c2c1 [Example 3, 4-oxo-3-phenyl-2-(pyridin-3-ylamino)-3,4-dihydroquinazoline-6-carbonitrile] | 97%
Cc1nc(Nc2nc3ccc(F)cc3c(=O)n2-c2ccccc2)cs1 [Example 174] | 78%
O=c1c2cc(F)ccc2nc(Nc2cccnc2)n1[C@H]1CC[C@H](O)CC1 [Example 180] | 35%
CN(C)c1cccc(-n2c(Nc3cccnc3)nc3ccc(F)cc3c2=O)c1 [Example 181] | 73%

Same assay, conditions: Homo sapiens, Neuron; @10 μM; read-out: inhibition rate

Structure (SMILES) | inhibition at 10 µM
O=c1c2cc(F)ccc2nc(Nc2ccsc2)n1-c1ccccc1 [Example 169] | 100%
O=c1c2cc(F)ccc2nc(Nc2cccnc2)n1C1(c2ccccc2)CNC1 [Example 175] | 25%
CN1CC(c2ccccc2)(n2c(Nc3cccnc3)nc3ccc(F)cc3c2=O)C1 [Example 176] | 88%
O=c1c2cc(F)ccc2nc(Nc2cnsc2)n1-c1ccccc1 [Example 178] | 76%
NCCn1c(Nc2cccnc2)nc2ccc(F)cc2c1=O [Example 179] | 98%
Cn1ccc(Nc2nc3ccc(F)cc3c(=O)n2-c2ccccc2)c1 [Example 182] | 72%
COc1cncc(-n2c(Nc3cccnc3)nc3ccc(F)cc3c2=O)c1 [Example 185] | 31%
Cn1cc(Nc2nc3ccc(Cl)cc3c(=O)n2-c2ccccc2)cn1 [Example 186] | 100%
O=c1c2cc(Cl)ccc2nc(Nc2nncs2)n1-c1ccccc1 [Example 229] | 5%
O=c1c2cc(Cl)ccc2nc(Nc2ncns2)n1-c1ccccc1 [Example 230] | 2%
O=c1c2ccccc2nc(Nc2ccon2)n1-c1ccccc1 [Example 232] | 73%

Same assay, conditions: Homo sapiens, Neuron; @100 μM; read-out: inhibition rate

Structure (SMILES) | inhibition at 100 µM
O=c1c2cc(F)ccc2nc(Nc2cccnc2)n1C1CCN(C2CC2)CC1 [Example 170] | 100%
O=c1c2cc(F)ccc2nc(Nc2cccnc2)n1CCC(F)(F)F [Example 171] | 100%
O=c1c2cc(F)ccc2nc(Nc2cnoc2)n1-c1ccccc1 [Example 172] | 100%
O=c1c2cc(F)ccc2nc(Nc2cccnc2)n1CCO [Example 173] | 6%
Nc1ccc2nc(Nc3cccnc3)n(-c3ccccc3)c(=O)c2c1 [Example 177] | 100%
CO[C@H]1CN(C)CC[C@H]1n1c(Nc2cccnc2)nc2ccc(F)cc2c1=O [Example 183] | 13%
O=c1c2cc(F)ccc2nc(Nc2cccnc2)n1-c1cncc(F)c1 [Example 184] | 54%

Same assay, conditions: Neuron; SCN1A gene deficient human iPS cell-derived neurons; FLIPR Calcium 6, FDSS7000EX; read-out: IC50 (50% inhibitory concentration, frequency of spontaneous calcium oscillation)

Structure (SMILES) | pIC50
O=c1c2ccccc2nc(Nc2cccnc2)n1-c1ccccc1 [Example 14, 3-phenyl-2-(pyridin-3-ylamino)quinazolin-4(3H)-one] | 5.74
COc1ccnc(Nc2nc3ccc(F)cc3c(=O)n2-c2ccccc2)c1 [Example 187] | < 5.00
COc1cccnc1Nc1nc2ccc(F)cc2c(=O)n1-c1ccccc1 [Example 188] | < 5.00
O=c1c2cnccc2nc(Nc2cccnc2)n1-c1ccccc1 [Example 189] | < 5.00
O=c1c2cc(F)ncc2nc(Nc2cccnc2)n1-c1ccccc1 [Example 190] | < 5.00
O=c1c2ncccc2nc(Nc2cccnc2)n1-c1ccccc1 [Example 191] | < 5.00
O=c1c2ccncc2nc(Nc2cccnc2)n1-c1ccccc1 [Example 192] | < 5.00
Cc1cc2nc(Nc3cccnc3)n(-c3ccccc3)c(=O)c2cn1 [Example 193] | < 5.00
Cc1cc2c(=O)n(-c3ccccc3)c(Nc3cccnc3)nc2cn1 [Example 194] | < 5.00
Cc1noc(C)c1-n1c(Nc2cccnc2)nc2ccc(F)cc2c1=O [Example 195] | < 5.00
CC1(n2c(Nc3cccnc3)nc3ccc(F)cc3c2=O)CC1 [Example 196] | < 5.00
O=c1c2cc(F)ncc2nc(Nc2cccnc2)n1CCc1ccccn1 [Example 197] | < 5.00
Cc1ccc2nc(Nc3cccnc3)n(-c3ccccc3)c(=O)c2n1 [Example 198] | < 5.00
O=c1c2cc(F)ccc2nc(Nc2cccnc2)n1[C@H]1CCOC1 [Example 199] | < 5.00

The next lines start with the values.

pIC50 | Structure (SMILES)
< 5.00 | CO[C@H]1CC[C@H](n2c(Nc3cccnc3)nc3ccc(F)cc3c2=O)CC1 [Example 200]
< 5.00 | C[C@H]1CC[C@H](n2c(Nc3cccnc3)nc3ccc(F)cc3c2=O)CC1 [Example 201]
< 5.00 | Cc1cnc2nc(Nc3cccnc3)n(-c3ccccc3)c(=O)c2c1 [Example 202]
< 5.00 | COCCn1c(Nc2cccnc2)nc2ccc(F)cc2c1=O [Example 203]
< 5.00 | O=c1c2cc(F)ccc2nc(Nc2cccnc2)n1C1COC1 [Example 204]
< 5.00 | O=c1c2cc(F)ccc2nc(Nc2cccnc2)n1C1(c2ccccc2)CCC1 [Example 205]
< 4.00 | O=c1c2cc(F)ccc2nc(Nc2cccnc2)n1C1(c2ccccn2)CC1 [Example 206]
< 5.00 | CN(C)CCn1c(Nc2cccnc2)nc2ccc(F)cc2c1=O [Example 207]
< 4.00 | CN1C[C@H]2CC[C@@H](C1)[C@@H]2n1c(Nc2cccnc2)nc2ccc(F)cc2c1=O [Example 208]
< 4.00 | O=c1c2cc(F)ccc2nc(Nc2csc(Cl)c2)n1-c1ccccc1 [Example 209]
< 4.00 | CC(=O)Nc1ccc2nc(Nc3cccnc3)n(-c3ccccc3)c(=O)c2c1 [Example 210]
< 4.00 | CS(=O)(=O)Nc1ccc2nc(Nc3cccnc3)n(-c3ccccc3)c(=O)c2c1 [Example 211]
< 5.00 | CN(C)c1ccc2nc(Nc3cccnc3)n(-c3ccccc3)c(=O)c2c1 [Example 212]
< 4.00 | CN(C)C(=O)c1ccc2nc(Nc3cccnc3)n(-c3ccccc3)c(=O)c2c1 [Example 213]
< 4.00 | Cc1ccccc1-n1c(Nc2cccnc2)nc2ccc(S(C)(=O)=O)cc2c1=O [Example 214]
< 5.00 | CN(C)c1cncc(-n2c(Nc3cccnc3)nc3ccc(F)cc3c2=O)c1 [Example 215]
< 4.00 | CN(C)c1cncc(Nc2nc3ccc(F)cc3c(=O)n2-c2ccccc2)c1 [Example 216]
< 5.00 | O=c1c2cc(Cl)ccc2nc(Nc2cn[nH]c2)n1-c1ccccc1 [Example 217]
< 5.00 | COc1cncc(Nc2nc3ccc(Cl)cc3c(=O)n2-c2ccccc2)c1 [Example 218]
< 4.00 | O=c1c2cccc(Cl)c2nc(Nc2cccnc2)n1-c1ccccc1 [Example 219]
< 5.00 | COc1cc2nc(Nc3cccc4ncccc34)n(C)c(=O)c2cc1OC [Example 220]
< 5.00 | NC(=O)c1ccc(Nc2nc3ccc(Cl)cc3c(=O)n2-c2ccccc2)nc1 [Example 221]
< 4.00 | O=c1c2ccc(F)cc2nc(Nc2cccnc2)n1-c1ccccc1 [Example 222]
< 4.00 | Cc1cccc2nc(Nc3cccnc3)n(-c3ccccc3)c(=O)c12 [Example 223]
< 4.00 | Cc1cccc2c(=O)n(-c3ccccc3)c(Nc3cccnc3)nc12 [Example 224]
< 4.00 | COc1ccc2c(=O)n(-c3ccccc3)c(Nc3cccnc3)nc2c1 [Example 225]
< 4.00 | O=c1c2ccc(F)cc2nc(Nc2cncc(F)c2)n1-c1ccccc1 [Example 226]
< 4.00 | COc1cc(Nc2nc3ccc(F)cc3c(=O)n2-c2ccccc2)ccn1 [Example 227]
< 5.00 | O=c1c2cc(Cl)ccc2nc(Nc2nnco2)n1-c1ccccc1 [Example 228]
< 5.00 | Cn1cnc(Nc2nc3ccccc3c(=O)n2-c2ccccc2)c1 [Example 231]

What follows are compounds tested on male Slc:ddy mice (assay: Rotarod evaluation (motor coordination)). Details: rotarod 15 rpm, 50 minutes after oral dosing, 180 seconds.
Format: in vivo, mouse
Procedure: The test evaluates the effect of suppressing the ability of motor coordination of a medicament. Male Slc:ddy mice (body weight: 20 to 30 g) were trained to walk for 5 minutes with a rotarod apparatus (apparatus for rotating a cylindrical bar with a 4 cm diameter, 12 rpm) on the day of the test. A test compound was orally administered to a group of 5 mice. […] Animals that fell off within 180 seconds due to incoordination were counted. […] 0.5% methylcellulose solution was administered for the control.

Structure (SMILES) | TD50 (dosage at which 50% of animals fall off)
N#Cc1ccc2nc(Nc3cccnc3)n(-c3ccccc3)c(=O)c2c1 [Example 3, 4-oxo-3-phenyl-2-(pyridin-3-ylamino)-3,4-dihydroquinazoline-6-carbonitrile] | 2.0 mg/kg, p.o.
O=c1c2ccccc2nc(Nc2cccnc2)n1-c1ccccc1 [Example 14, 3-phenyl-2-(pyridin-3-ylamino)quinazolin-4(3H)-one] | 7.38 mg/kg, p.o.
